Results reported in PMC7044277 (Nature Communications, 2020).
Values joined by “and” are separate entries in the source; they are usually repeats but may differ in a detail not shown here. Equal values may be shown once.

Tests used:
Type in all cases: cell-based
DRD2 (D2 long receptor) = DRD2 (D2 long receptor) (Homo sapiens, UniProt P14416); test: β-arrestin2 recruitment (Tango), HTLA cells
5HT1F = molecular target: T1, 5HT1F (Homo sapiens, UniProt P30939); test: β-arrestin2 recruitment (Tango); conditions: for β-arrestin2 recruitment response, agonist mode (single replicate values): Fig_S10j; for Fig_S10j dose-response, drug alone (agonist mode), β-arrestin2 recruitment: single replicate values; as to β-arrestin2 recruitment response, agonist mode (single replicate values): reference of the scale not given here
T1 construct: expressed in transfected cells; host or cells: HTLA cells expressing TEV-fused β-arrestin2
T1 sequence (P30939 1-366): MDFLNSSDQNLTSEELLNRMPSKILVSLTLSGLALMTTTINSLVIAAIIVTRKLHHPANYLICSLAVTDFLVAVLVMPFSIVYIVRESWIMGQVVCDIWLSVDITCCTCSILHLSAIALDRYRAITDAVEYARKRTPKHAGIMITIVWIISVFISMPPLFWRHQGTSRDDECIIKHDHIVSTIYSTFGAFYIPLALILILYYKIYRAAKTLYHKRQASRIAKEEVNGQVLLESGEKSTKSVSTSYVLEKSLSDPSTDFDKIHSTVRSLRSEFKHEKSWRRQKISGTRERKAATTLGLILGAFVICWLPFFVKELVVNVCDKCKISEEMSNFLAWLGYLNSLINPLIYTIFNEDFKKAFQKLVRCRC

5HT4 = molecular target: T2, 5HT4 (Homo sapiens, UniProt Q13639); test: β-arrestin2 recruitment (Tango); conditions: Fig_S10n; for β-arrestin2 recruitment response in presence of serotonin (replicate values): +10μM serotonin; for β-arrestin2 recruitment response (dose-response source data, replicate values): drug alone
T2 construct: expressed in transfected cells; host or cells: HTLA cells expressing TEV-fused β-arrestin2
T2 sequence (Q13639 whole entry, the tested form may be a part): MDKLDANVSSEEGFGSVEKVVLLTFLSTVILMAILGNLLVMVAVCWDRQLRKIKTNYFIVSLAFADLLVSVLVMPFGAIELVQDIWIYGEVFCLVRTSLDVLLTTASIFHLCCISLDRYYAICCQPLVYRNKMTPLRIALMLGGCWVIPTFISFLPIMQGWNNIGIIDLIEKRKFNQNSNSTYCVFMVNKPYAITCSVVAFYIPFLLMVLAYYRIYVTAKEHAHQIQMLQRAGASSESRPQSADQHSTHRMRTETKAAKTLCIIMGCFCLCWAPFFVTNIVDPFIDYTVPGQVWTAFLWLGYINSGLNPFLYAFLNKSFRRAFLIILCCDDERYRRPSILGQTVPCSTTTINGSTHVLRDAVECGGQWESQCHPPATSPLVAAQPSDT

Sequence of DRD2 (D2 long receptor) (P14416 whole entry): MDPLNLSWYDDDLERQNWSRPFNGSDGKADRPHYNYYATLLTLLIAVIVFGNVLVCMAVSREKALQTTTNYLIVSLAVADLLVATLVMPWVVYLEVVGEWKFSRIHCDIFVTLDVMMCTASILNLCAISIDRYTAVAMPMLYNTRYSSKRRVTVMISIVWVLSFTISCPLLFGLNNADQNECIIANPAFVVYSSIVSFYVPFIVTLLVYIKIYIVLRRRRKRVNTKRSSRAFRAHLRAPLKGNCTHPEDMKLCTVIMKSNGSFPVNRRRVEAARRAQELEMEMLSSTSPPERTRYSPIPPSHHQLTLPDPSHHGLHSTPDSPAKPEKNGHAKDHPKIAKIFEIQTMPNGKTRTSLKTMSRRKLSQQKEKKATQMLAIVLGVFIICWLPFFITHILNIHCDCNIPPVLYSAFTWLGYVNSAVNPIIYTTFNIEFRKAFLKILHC

## CCOc1cccc2cc([C@@H](C)NCC3(O)CCCCC3)oc12 [O4RE6]
DRD2 (D2 long receptor); Log[Drug] -7
  β-arrestin2 recruitment response at DRD2 (source data, replicate values): 9.564 and 7.739 and 7.708 and 7.415 and 7.649 and 7.113 and 9.501
DRD2 (D2 long receptor); Log[Drug] -7.52
  β-arrestin2 recruitment response at DRD2 (source data, replicate values): 5.75 and 5.841 and 5.282 and 5.619 and 6.782 and 5.749 and 5.8801
DRD2 (D2 long receptor); Log[Drug] -8
  β-arrestin2 recruitment response at DRD2 (source data, replicate values): 5.434 and 5.45 and 5.389 and 5.042 and 5.329 and 5.148 and 5.345
DRD2 (D2 long receptor); Log[Drug] -8.52
  β-arrestin2 recruitment response at DRD2 (source data, replicate values): 5.277 and 5.01 and 4.9419 and 4.98 and 5.0858 and 5.308 and 5.178
DRD2 (D2 long receptor); Log[Drug] -9
  β-arrestin2 recruitment response at DRD2 (source data, replicate values): 5.4097 and 5.385 and 5.128 and 4.863 and 4.947 and 4.805 and 4.8829
DRD2 (D2 long receptor); Log[Drug] -9.52
  β-arrestin2 recruitment response at DRD2 (source data, replicate values): 5.139 and 4.887 and 4.831 and 4.75 and 5.079 and 5.123 and 4.823
DRD2 (D2 long receptor); Log[Drug] -10
  β-arrestin2 recruitment response at DRD2 (source data, replicate values): 5.431 and 4.786 and 4.659 and 4.856 and 4.756 and 4.79 and 4.8682
DRD2 (D2 long receptor); Log[Drug] -10.52
  β-arrestin2 recruitment response at DRD2 (source data, replicate values): 5.022 and 4.798 and 4.776 and 4.763 and 4.86 and 4.945 and 4.841
DRD2 (D2 long receptor); Log[Drug] -11
  β-arrestin2 recruitment response at DRD2 (source data, replicate values): 4.915 and 4.765 and 4.615 and 4.7302 and 4.774 and 4.749 and 4.971
DRD2 (D2 long receptor); Log[Drug] -11.52
  β-arrestin2 recruitment response at DRD2 (source data, replicate values): 4.946 and 4.662 and 4.627 and 4.695 and 4.751 and 4.656 and 4.732
5HT1F; Log[Drug] -8
  β-arrestin2 recruitment response, agonist mode (single replicate values): -0.9904 and 0.5932 and 0.4069 and -0.749 and -2.5023 and -1.954 and -1.184 and -1.248 and -0.2773
5HT1F; Log[Drug] -8.52
  β-arrestin2 recruitment response, agonist mode (single replicate values): 0.3187 and 0.8997 and 1.294 and 0.7694 and -1.144 and -0.1941 and 0.6567 and 0.7348 and -0.5451
5HT1F; Log[Drug] -9
  β-arrestin2 recruitment response, agonist mode (single replicate values): 0.2574 and -0.174 and 0.01716 and -1.454 and -1.951 and -2.373 and 1.634 and -1.575 and -0.4734
5HT1F; Log[Drug] -9.52
  β-arrestin2 recruitment response, agonist mode (single replicate values): -0.956 and -0.4682 and 0.01716 and 8.249 and -1.726 and -1.835 and -1.503 and -0.6631 and 0.5435
5HT1F; Log[Drug] -10
  β-arrestin2 recruitment response, agonist mode (single replicate values): 2.1842 and 2.2749 and -0.3922 and 0.1736 and 1.58 and -1.964 and -1.621 and -1.4329 and 0.0271
5HT1F; Log[Drug] -10.52
  β-arrestin2 recruitment response, agonist mode (single replicate values): 0.6104 and 0.6079 and -0.2672 and -0.6094 and -0.8784 and -1.423 and 0.2215 and -0.4766 and -0.1562
5HT1F; Log[Drug] -11
  β-arrestin2 recruitment response, agonist mode (single replicate values): -0.2991 and -0.7746 and -0.956 and -0.1975 and -1.559 and -1.001 and -0.7953 and -1.428 and -1.442
5HT1F; Log[Drug] -11.52
  β-arrestin2 recruitment response, agonist mode (single replicate values): 9.046 and 4.9 and 0.09315 and 0.6026 and -0.4766 and -1.413 and -2.451 and -1.372 and 1.5094
5HT1F; Log[Drug] -12
  β-arrestin2 recruitment response, agonist mode (single replicate values): -1.25 and -0.8555 and 2.1082 and 1.035 and 1.318 and -2.3525 and 0.1164 and 0.6822 and -0.7969
5HT1F; Log[Drug] -5
  Fig_S10j dose-response, drug alone (agonist mode), β-arrestin2 recruitment: 1.292 and 2.037 and 1.765 and 2.135 and 0.1634 and 3.054 and 1.165 and -0.4495 and -0.04941
5HT1F; Log[Drug] -5.52
  Fig_S10j dose-response, drug alone (agonist mode), β-arrestin2 recruitment: -0.7085 and 0.2942 and 0.1765 and 0.7149 and -0.06809 and -1.164 and 0.2965 and -1.31 and 0.1036
5HT1F; Log[Drug] -6
  Fig_S10j dose-response, drug alone (agonist mode), β-arrestin2 recruitment: -1.684 and 5.405 and 2.934 and -0.3268 and -0.4664 and -1.437 and 0.7141 and -1.815 and -1.243
5HT1F; Log[Drug] -6.52
  Fig_S10j dose-response, drug alone (agonist mode), β-arrestin2 recruitment: 1.461 and 1.956 and 0.6766 and -2.305 and -1.43 and 2.938 and -0.4511 and -1.052 and 1.639
5HT1F; Log[Drug] -7
  Fig_S10j dose-response, drug alone (agonist mode), β-arrestin2 recruitment: -0.5859 and 0.3873 and 1.292 and -1.294 and -0.606 and 1.008 and -0.03666 and -1.56 and -1.246
5HT1F; Log[Drug] -7.52
  Fig_S10j dose-response, drug alone (agonist mode), β-arrestin2 recruitment: -0.7844 and 5.5181 and -0.1961 and 0.48 and -1.147 and -0.875 and -0.2471 and -0.4702 and -1.368
5HT4; Log[Drug] -6.52
  β-arrestin2 recruitment response in presence of serotonin (replicate values): 61.872
  β-arrestin2 recruitment response (dose-response source data, replicate values): 1.914
5HT4; Log[Drug] -7
  β-arrestin2 recruitment response in presence of serotonin (replicate values): 64.7524 and 57.0569 and 68.7411 and 71.876 and 66.1156 and 64.7823 and 62.9846 and 72.5854 and 58.9141
  β-arrestin2 recruitment response (dose-response source data, replicate values): 0.4762 and 0.5315 and 0.3036 and 1.47 and 0.6917 and 0.6083 and -0.2126 and 0.07923 and 0.2126
5HT4; Log[Drug] -7.52
  β-arrestin2 recruitment response in presence of serotonin (replicate values): 67.3937 and 54.3976 and 65.3292 and 58.7354 and 62.4375 and 61.2125 and 60.3264 and 67.443 and 67.076
  β-arrestin2 recruitment response (dose-response source data, replicate values): 0.4824 and 0.6557 and 1.0009 and 1.276 and 0.8198 and 0.6438 and -0.1108 and 0.08408 and -0.1463
5HT4; Log[Drug] -8
  β-arrestin2 recruitment response in presence of serotonin (replicate values): 65.8409 and 63.3895 and 63.0679 and 59.9271 and 55.4104 and 64.9198 and 50.9713 and 49.466 and 77.9372
  β-arrestin2 recruitment response (dose-response source data, replicate values): 0.2279 and 0.2043 and 0.8233 and 0.8469 and 0.6458 and 2.318 and -0.27 and -0.308 and 0.6993
5HT4; Log[Drug] -8.52
  β-arrestin2 recruitment response in presence of serotonin (replicate values): 63.4237 and 62.7587 and 63.6242 and 63.1469 and 61.3792 and 61.5198 and 57.3708 and 61.2149 and 65.253
  β-arrestin2 recruitment response (dose-response source data, replicate values): 1.195 and 1.746 and 0.9636 and 0.6083 and 1.193 and 1.147 and -0.3056 and 0.2118 and 0.0477
5HT4; Log[Drug] -9
  β-arrestin2 recruitment response in presence of serotonin (replicate values): 73.1291 and 64.8356 and 60.6203 and 52.4417 and 65.9365 and 64.5823 and 63.8148 and 65.7381 and 55.6869
  β-arrestin2 recruitment response (dose-response source data, replicate values): 0.9748 and 0.4464 and 1.275 and 1.439 and 1.359 and 0.525 and -0.3751 and 0.5028 and -0.1156
5HT4; Log[Drug] -9.52
  β-arrestin2 recruitment response in presence of serotonin (replicate values): 69.2832 and 67.6123 and 68.9932 and 55.1 and 63.4344 and 64.601 and 58.9998 and 66.4964 and 65.7267
  β-arrestin2 recruitment response (dose-response source data, replicate values): 0.9748 and 1.052 and 0.4042 and 0.901 and 0.7365 and 0.6104 and 1.02 and 0.3484 and -0.01698
5HT4; Log[Drug] -10
  β-arrestin2 recruitment response in presence of serotonin (replicate values): 76.2485 and 62.2675 and 64.5873 and 59.8927 and 56.6667 and 68.1219 and 68.0316 and 61.4033 and 67.9677
  β-arrestin2 recruitment response (dose-response source data, replicate values): 0.629 and 0.5812 and 0.457 and 0.6927 and 0.4885 and 0.9823 and -0.2005 and 5.06 and 0.3864
5HT4; Log[Drug] -10.52
  β-arrestin2 recruitment response in presence of serotonin (replicate values): 75.7189 and 64.7332 and 70.6094 and 73.5573 and 66.3448 and 67.3771 and 66.768 and 70.3542 and 67.3953
  β-arrestin2 recruitment response (dose-response source data, replicate values): 0.4328 and 0.1577 and 0.7768 and 0.8562 and 0.5281 and 1.361 and 0.08327 and -0.03395 and 0.2724
5HT4; Log[Drug] -11
  β-arrestin2 recruitment response in presence of serotonin (replicate values): 74.7968 and 75.6357 and 68.127 and 60.4448 and 57.1219 and 66.626 and 65.7178 and 87.5009 and 57.2593
  β-arrestin2 recruitment response (dose-response source data, replicate values): 0.5557 and 0.7004 and 0.8308 and 2.567 and 0.5635 and 1.27 and -0.1415 and -0.4034 and 0.4066
5HT4; Log[Drug] -11.52
  β-arrestin2 recruitment response in presence of serotonin (replicate values): 97.2705 and 89.1683 and 77.1935 and 74.2448 and 65.2792 and 55.4573 and 62.6402 and 78.6163 and 88.7629
  β-arrestin2 recruitment response (dose-response source data, replicate values): 0.4266 and 1.996 and 0.1267 and 1.773 and 0.5229 and 1.651 and 0.05093 and 0.01859 and 0.1746
5HT4; Log[Drug] -12
  β-arrestin2 recruitment response in presence of serotonin (replicate values): 118.392 and 99.4834 and 97.7219 and 77.2104 and 74.4021 and 77.9375 and 116.996 and 81.757 and 92.5544
  β-arrestin2 recruitment response (dose-response source data, replicate values): 0.9382 and 1.326 and 1.032 (2×) and 0.8271 and 0.8656 and -0.4301 and -0.07599 and 0.5061
